Consider 1 compound from patent US20200375929A1, “METHODS AND COMPOSITIONS FOR THE TREATMENT OF DISEASES ASSOCIATED WITH CANCER, INFLAMMATION, OR IMMUNE RESPONSE” (Washington University, priority 2017, published 2020).

Molecules are shown by their SMILES. “Also recorded” adds a separate entry of the source.

For one experiment, the system named is HBL1 cells line (ABC). The experiment can be described thus: DLBCL cell viability, resazurin assay, ABC subtype. The format is cell-based. To be noted: HBL1, 4 days, refreshed daily; DI 125-250 μM. For orientation: Alamar Blue is a resazurin reagent that responds to reducing activity.
For the next experiment, the system named is Nfkbiz mRNA. Nature of the experiment: Nfkbiz (Ikb-ζ) mRNA expression in BMDMs (qPCR). To be noted: DI 12 h, then LPS. Type of experiment: cell-based, mouse. On the procedure: BMDM were prepared from 6- to 12-week-old mice as described 1 and cultured in RMPI-1640 medium supplemented with 10% fetal bovine serum (FBS), 2 mM L-glutamine, and 100 U/mL penicillin-streptomycin and mouse recombinant M-CSF ([…], Peprotech). For experiments, cells were seeded at concentration 10^6 cells/mL in tissue culture plates of various formats. The cells were treated with DI (250 μM (unless stated otherwise), cat #592498, Sigma), DMF (50 μM (unless stated otherwise), cat #242926, Sigma), 3-(ethoxycarbonyl)but-3-enoic acid (3MI, 5 μM, Aris Pharmaceuticals Inc.), 4-ethoxy-2-methylene-4-oxobutanoic acid (MI, Aris Pharmaceuticals Inc.) for 12 h and activated with lipopolysaccharide (LPS; 100 ng/mL; E. coli 0111:B4, Sigma) for 1 h or as indicated. In some experiments cells were stimulated with combination of LPS (20 ng/mL) and IFN-γ (50 ng/mL; Peprotech). In some experiments cells were treated with α-tocopherol (AT, 10 μM; Sigma), MitoTEMPO (MT, 500 μM; Sigma), N-acetylcysteine (NAC, 1 mM, Sigma), ethylester of GSH (EtGSH; 1 mM, Santa Cruz) or buthionene sulfoximine (BSO, 500 μM, Sigma) alone or in combination with DI for 12 h. […]
RNA from cultured cells was isolated using a Total RNA I kit (OMEGA). […] Threshold cycle (CT) values for each sample were determined by automated threshold analysis. […]
Background: Real-time PCR tracks product formation cycle by cycle.

The next experiment deals with BMDMs. The experiment can be described thus: Glutathione (GSH) measurement in BMDMs. The format is cell-based, mouse. To be noted: DI 250 μM. On the procedure:
Total GSH concentration in cells was determined by GSH/GSSH Ratio Detection Assay Kit (Abeam) according to manufacturer protocol. Briefly, 106 BMDMs were lysed in 100 μL of 0.5% NP-40 in PBS, pH 6. Samples were deproteinized using trichloroacetic acid and neutralized by addition of 1M NaHCO3 to achieve pH 4-6. Collected extracts were diluted with supplied assay buffer and directly used for GSH measurement.

The test system of experiment [1] is IκBζ target genes (Defb4, S100a7a, Lcn2, S100a9). The experiment can be described thus: IκBζ target gene expression in IL-17A-stimulated mouse keratinocytes (qPCR). Type of experiment: cell-based. To be noted: DI 12 h, IL-17A 4 h. On the procedure:
RNA from cultured cells was isolated using a Total RNA I kit (OMEGA). RNA from mouse ear skin was extracted using RNAeasy mini kit (Qiagen) after tissue disruption with sterile zirconium beads on a MagNA Lyser (Roche). Isolated RNA was reverse transcribed using AffinityScript Multi-Temp reverse transcriptase (Agilent Technologies) according to the manufacturer's protocol. Reactions were performed in 96-well plates using a SYBR Green PCR Master mix (Thermo Fisher Scientific) using a LightCycler® 96 or LightCycler® 480 (Roche Diagnostics). All assays were performed at least in duplicates, and reaction mixtures in 20 μL volumes (96-plate) or 10 μL volumes (384-plate) were processed under the following cycling conditions: initial 10 min denaturation at 95° C., followed by 40 cycles at 95° C. for 10 s, 60° C. for 1 min. Threshold cycle (CT) values for each sample were determined by automated threshold analysis. Expression levels of all mRNAs were normalized to reference gene Actb in BMDMs or to Rpl19 in mouse keratinocytes and tissue samples; to ACTB in human blood monocytes or RPLP0 in human keratinocytes. The relative increase in the expression level of a gene was normalized to the level of expression in unstimulated control cells in each experiment. IκBζ-dependent genes selected for analysis in macrophages were previously published. […]

The subject of the next experiment is BMDMs / BV2 cells. Nature of the experiment: Intracellular ROS by flow cytometry. The format is cell-based, mouse. The conditions noted are these: DI 250 μM. On the procedure:
For ROS measurements, cells were treated with DI (250 μM), loaded with 10 μM CM-H2DCFDA (Invitrogen) at RT for 30 min in Hank's balanced salt solution (HBSS). After incubation, cell were rinsed with warm HBSS, harvested and directly analyzed. Mean fluorescent intensity (MFI) of living cells is shown. For Nfkbiz 3′UTR reporter analysis GFP signal was determined in live cells. For analysis of cell viability cells were stained with propidium iodide (1 μg/mL) and percentage of negative cells was plotted. Cells were acquired on CantoII or LSRII flow cytometers (Becton Dickinson), and data were analyzed with FlowJo v.9.5.2 software (Tree Star). For gating strategy see e.g., FIG. 25.
Background: Flow cytometry measures light scatter and fluorescence of single cells or particles in a stream.

For another experiment, the system named is IκBζ. Nature of the experiment: IL-17A-induced IκBζ in primary human keratinocytes (western blot). The format is cell-based. The conditions noted are these: DI 12 h, IL-17A 100 ng/ml. On the procedure: Cells were lysed in RIPA Lysis Buffer System (Santa Cruz) and heat-denatured at 95° C. for 5 min in reducing sample buffer (BioRad). Proteins were separated on 4%-20% polyacrylamide gradient gels (BioRad) and transferred onto 0.45 μm pore size PVDF membranes (Millipore). Non-specific binding was blocked with 5% skim milk (or 5% BSA when phospho-proteins were analyzed), and membranes were probed with primary antibodies specific to Nrf2 (#12721), HO-1 (#70081), IκBζ (mouse specific, #93726), IκBζ(#9244), ATF3 (#D2Y5W), IRAK1 (#4504; sensitivity of IRAK1 detection diminishes upon IRAK1 K63 ubiquitination), phospho-IKK (Ser176/180, #2697), p62/SQSTM1 (#5114), phospho-eIF2α (Ser51, #9721), eIF2α (#5324) from Cell Signaling; GAPDH (sc-25778), IκBα (sc-1643), ATF3 (sc-188), SDHA (sc-166909) from Santa Cruz; NQO1 (ab28947) from Abeam, followed by incubation with anti-rabbit-HRP (1:10,000; sc-2030) or anti-mouse-HRP (1:10,000; sc-2031) from Santa Cruz and Clarity western ECL substrate (Bio-Rad). Membranes were exposed to X-Ray films (Research Products International Corp.) and developed using SRX-101A film processor (Konica Minolta). GAPDH run on the same blot was used as loading control. After scanning of original films image brightness of some blots was adjusted and bands were cropped using ImageJ. Densitometry was performed using ImageJ. […]

As for `C=C(CC(=O)OC)C(=O)OC` [DI, dimethyl itaconate], the “growth / toxicity, ABC DLBCL” value in the experiment on HBL1 cells line (ABC) is given as “selective toxicity towards ABC”. The “Ikb-ζ (Nfkbiz) mRNA level” value in the experiment on Nfkbiz mRNA is given as “only moderate effect; also recorded: not changed”. Besides, in the experiment with BMDMs, the GSH/GSSG ratio result is “substantial drop” and the “cellular GSH” value is “substantial drop in cellular GSH; also recorded: substantial drop of cellular GSH concentration”. In experiment [1], the “expression of IκBζ target genes” value is “downregulated”. Also, the “intracellular ROS production” value with BMDMs / BV2 cells is “increased intracellular ROS; also recorded: increase in ROS generation”. Further, in the experiment with IκBζ, the “IL-17-induced IκBζ induction” value is reported as “inhibited”.
